Results as given in patent publication US10233156B2, “9-membered fused ring derivative” (Shionogi & Co., Ltd., priority 2015, dated 2019).
pIC50: −log10 of the molar value.

Tests used:
recombinant human ACC2 = recombinant human ACC2 (Homo sapiens (Human), UniProt O00763); experiment: Measurement of inhibitory activity on human ACC2 (MALDI-TOF MS, conversion of acetyl CoA to malonyl CoA); format: biochemical; conditions: recombinant human ACC2, room temperature, 1 to 3 hours
Excerpt: After a cDNA encoding human ACC2 (27 amino acid residue to 2458 amino acid residues from the N-terminus) was cloned from human kidney cDNA library (Clontech), human ACC2 gene containing His-tag sequence at 5′ terminus was inserted into pFastBac1 (Invitrogen). Recombinant baculovirus was generated using Bac-to-Bac baculovirus expression system (Invitrogen) according to the manufacturer's protocol. To express human ACC2, Sf-9 cells were infected with recombinant baculovirus. After infected cells were disrupted, the filtrated lysate was subjected to Ni-affinity chromatography and anion-exchange chromatography. The fractions containing human ACC2 protein were pooled as recombinant human ACC2 solution.
(§1) Recombinant human ACC1 and recombinant human ACC2, which were prepared by the method mentioned above, were preincubated with assay buffer solution (50 mM HEPES-KOH (pH 7.4), 10 mM magnesium chloride, 6-10 mM potassium citrate, 4 mM reduced form of glutathione, 1.5 mg/ml bovine serum albumin) for one hour. Then, 0.2 μL of each this invention compound solution (in DMSO) were dispensed to 384-well microplate, 5 μL of the preincubated enzyme solution and 5 μL of substrate solution (50 mM HEPES-KOH (pH 7.4), 1 mM ATP, 0.8 mM acetyl CoA and 25-50 mM potassium bicarbonate) were added to microplate. After centrifugation and shaking, the reaction mixtures were incubated in a humidified box at room temperature for 1 to 3 hours. After the incubation, the enzyme reactions were stopped by the addition of EDTA. Then, after the samples were cocrystallized with CHCA (α-cyano-4-hydroxy cinnamic acid) matrices on MALDI target plate, by using the matrix assist laser […] time-of-flight mass spectrometer (MALDI-TOF MS), samples were measured in reflector negative mode. Deprotonated ions of acetyl CoA (AcCoA) of substrate and malonyl CoA (MalCoA) of the reaction product were detected, then, the conversion rates of acetyl CoA to malonyl CoA was calculated by the intensity of [MalCoA-H]−/(Intensity of [MalCoA-H].+Intensity of [AcCoA-H]—) using each signal strength. […] In addition, potassium citrate concentrations in assay buffer solution, potassium hydrogen carbonate concentrations in substrate solution and incubation time were adjusted by each lot of enzyme.

recombinant human ACC1 = recombinant human ACC1 (Homo sapiens (Human), UniProt Q13085); experiment: Measurement of inhibitory activity on human ACC1 (MALDI-TOF MS, conversion of acetyl CoA to malonyl CoA); format: biochemical; conditions: recombinant human ACC1, room temperature, 1 to 3 hours
Excerpt: After a cDNA encoding human ACC1 (1 amino acid residue to 2346 amino acid residues from the N-terminus) was cloned from human liver cDNA library (BioChain), human ACC1 gene containing myc-tag and His-tag sequence at 3′ terminus was inserted into pIEXBAC3 (Novagen). Recombinant baculovirus was generated using FlashBACGOLD system (Oxford Expression Technologies) according to the manufacturer's protocol. To express human ACC1, Sf-9 cells were infected with recombinant baculovirus. After infected cells were disrupted, the filtrated lysate was subjected to Ni-affinity chromatography and anion-exchange chromatography. The fractions containing human ACC1 protein were pooled as recombinant human ACC1 solution.
as §1

Chain of recombinant human ACC2 (O00763 27-2458): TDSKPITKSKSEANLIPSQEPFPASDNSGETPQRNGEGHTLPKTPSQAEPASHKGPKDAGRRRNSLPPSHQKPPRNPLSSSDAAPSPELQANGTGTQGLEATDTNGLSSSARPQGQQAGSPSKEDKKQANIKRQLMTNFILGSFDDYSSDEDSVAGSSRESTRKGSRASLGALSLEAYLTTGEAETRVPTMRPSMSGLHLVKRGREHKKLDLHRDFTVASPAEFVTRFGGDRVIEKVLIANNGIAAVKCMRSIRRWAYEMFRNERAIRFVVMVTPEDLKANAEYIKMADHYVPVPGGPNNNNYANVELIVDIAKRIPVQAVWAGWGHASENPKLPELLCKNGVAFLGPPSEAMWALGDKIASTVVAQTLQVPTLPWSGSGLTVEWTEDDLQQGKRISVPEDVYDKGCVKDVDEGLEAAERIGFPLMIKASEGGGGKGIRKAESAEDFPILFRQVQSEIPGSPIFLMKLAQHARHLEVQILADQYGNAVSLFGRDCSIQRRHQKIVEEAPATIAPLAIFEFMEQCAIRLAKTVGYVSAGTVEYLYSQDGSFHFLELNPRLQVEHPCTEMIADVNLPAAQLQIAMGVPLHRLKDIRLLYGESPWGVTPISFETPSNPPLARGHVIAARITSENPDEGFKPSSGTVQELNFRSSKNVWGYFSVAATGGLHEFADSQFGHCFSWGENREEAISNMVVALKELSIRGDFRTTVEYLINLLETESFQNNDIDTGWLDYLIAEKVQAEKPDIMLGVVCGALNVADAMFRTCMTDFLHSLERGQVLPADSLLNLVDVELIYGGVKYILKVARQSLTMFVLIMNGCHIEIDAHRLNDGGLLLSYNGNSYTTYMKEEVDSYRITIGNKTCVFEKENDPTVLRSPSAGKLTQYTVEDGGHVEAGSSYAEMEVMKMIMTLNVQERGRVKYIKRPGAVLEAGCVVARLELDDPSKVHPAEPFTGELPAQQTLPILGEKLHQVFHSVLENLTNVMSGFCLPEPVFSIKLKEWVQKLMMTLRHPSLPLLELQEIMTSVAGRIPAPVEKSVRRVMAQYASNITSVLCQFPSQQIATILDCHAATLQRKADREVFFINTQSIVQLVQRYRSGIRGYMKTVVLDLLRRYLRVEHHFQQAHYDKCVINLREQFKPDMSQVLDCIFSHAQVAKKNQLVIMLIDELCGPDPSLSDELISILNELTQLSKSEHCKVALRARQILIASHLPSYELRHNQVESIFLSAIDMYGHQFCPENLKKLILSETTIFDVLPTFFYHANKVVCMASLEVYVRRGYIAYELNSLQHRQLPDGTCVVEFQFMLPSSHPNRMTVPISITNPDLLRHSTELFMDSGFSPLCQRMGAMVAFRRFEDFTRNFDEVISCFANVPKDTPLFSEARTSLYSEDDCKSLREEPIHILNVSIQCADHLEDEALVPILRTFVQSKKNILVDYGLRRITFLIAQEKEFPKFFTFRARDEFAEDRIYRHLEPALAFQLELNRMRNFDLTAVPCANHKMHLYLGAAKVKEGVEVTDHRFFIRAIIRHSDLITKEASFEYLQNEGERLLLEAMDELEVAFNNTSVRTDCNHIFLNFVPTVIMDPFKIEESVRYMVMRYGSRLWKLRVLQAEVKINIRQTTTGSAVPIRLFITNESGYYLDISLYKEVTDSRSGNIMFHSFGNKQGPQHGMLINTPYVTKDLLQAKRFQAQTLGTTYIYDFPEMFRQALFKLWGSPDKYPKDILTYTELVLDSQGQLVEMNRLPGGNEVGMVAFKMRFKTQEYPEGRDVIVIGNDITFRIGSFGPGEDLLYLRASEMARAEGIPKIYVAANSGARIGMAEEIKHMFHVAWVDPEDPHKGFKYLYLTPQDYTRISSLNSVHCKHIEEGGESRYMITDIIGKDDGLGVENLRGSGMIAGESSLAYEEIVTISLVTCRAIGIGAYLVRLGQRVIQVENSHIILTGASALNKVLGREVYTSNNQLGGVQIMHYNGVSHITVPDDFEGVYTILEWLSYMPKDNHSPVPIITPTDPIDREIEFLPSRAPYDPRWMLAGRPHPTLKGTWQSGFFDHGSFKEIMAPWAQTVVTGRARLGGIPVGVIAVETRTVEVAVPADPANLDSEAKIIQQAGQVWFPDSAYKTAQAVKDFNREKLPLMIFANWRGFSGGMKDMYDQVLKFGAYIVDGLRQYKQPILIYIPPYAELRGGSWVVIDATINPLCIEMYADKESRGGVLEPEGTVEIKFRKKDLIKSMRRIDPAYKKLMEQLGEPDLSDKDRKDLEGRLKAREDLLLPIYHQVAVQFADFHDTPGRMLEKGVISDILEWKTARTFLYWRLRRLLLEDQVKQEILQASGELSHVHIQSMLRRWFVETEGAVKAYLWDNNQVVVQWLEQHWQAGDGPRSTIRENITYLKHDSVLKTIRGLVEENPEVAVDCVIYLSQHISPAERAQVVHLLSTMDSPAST

Row | SMILES | pIC50 (recombinant human ACC2) | pIC50 (recombinant human ACC1)
1 | CC(=O)N[C@@H](C)CO[C@H]1CC[C@H](Oc2nc3c(F)cc(OCC4(F)COC4)c(F)c3n2C)CC1 [Example I-195] | 7.46 | –
2 | CC(=O)N[C@@H](C)CC[C@H]1OC[C@H](Oc2nc3c(F)cc(OCC(F)F)c(F)c3n2C)C[C@@H]1F [Example I-196] | 8.00 | –
3 | C[C@@H](CO[C@H]1CC[C@H](Oc2nc3ccc(OC4CC4)cc3n2C)CC1)NC(N)=O [Example I-197] | 7.89 | –
4 | C[C@@H](CO[C@H]1CC[C@H](Oc2nc3ccc(OC4CC4)c(F)c3n2C)CC1)NC(N)=O [Example I-198] | 8.28 | –
5 | CC(=O)N[C@@H](CF)CO[C@H]1CC[C@H](Oc2nc3c(F)cc(OC4CC4)cc3n2C)CC1 [Example I-201] | 8.33 | –
6 | CC(=O)N[C@@H](C)CO[C@H]1CC[C@H](Oc2nc3c(F)cc(OC4(C)COC4)c(F)c3n2C)CC1 [Example I-203] | 6.96 | –
7 | CC(=O)N[C@@H](C)CO[C@H]1CC[C@H](Oc2nc3c(F)cc(OCC(F)F)c(F)c3n2C)CC1 [Example I-208] | 8.06 | –
8 | CC(=O)N[C@@H](C)CO[C@H]1CC[C@H](Oc2nc3cc(Cl)c(F)cc3n2C)CC1 [Example I-211] | 6.92 | –
9 | CC(=O)N[C@@H](C)CO[C@H]1CC[C@H](Oc2nc3cc(F)c(F)c(F)c3n2C)CC1 [Example I-215] | 7.77 | –
10 | CC(=O)N[C@@H](C)CO[C@H]1CC[C@H](Oc2nc3cc(F)c(Cl)cc3n2C)CC1 [Example I-217] | 7.19 | –
11 | CC(=O)N[C@@H](C)CO[C@H]1CC[C@H](Oc2nc3ccc(OC4CC4)cc3n2C)CC1 [Example I-221] | 8.04 | –
12 | C[C@@H](CO[C@H]1CC[C@H](Oc2nc3c(Cl)cc(OC4CC4)cc3n2C)CC1)NC(N)=O [Example I-222] | 7.77 | –
13 | CC(=O)N[C@@H](C)CC[C@H]1OC[C@H](Oc2nc3c(F)cc(OCC(F)F)c(F)c3n2C)CC1(F)F [Example I-228] | 7.89 | –
14 | C[C@@H](CO[C@H]1CC[C@H](Oc2nc3cnc(OC4CC4)cc3n2C)CC1)NC(N)=O [Example I-229] | 6.22 | –
15 | CC(=O)N[C@@H](C)CC(F)(F)[C@@H]1CC[C@@H](Oc2nc3c(F)cc(OCC(F)F)c(F)c3n2C)CO1 [Example I-230] | 7.05 | < 4.00
16 | Cn1c(O[C@H]2CC[C@H](OC[C@H](CF)NC(N)=O)CC2)nc2c(F)cc(OCC(F)F)c(F)c21 [Example I-232] | 7.96 | –
17 | CC(=O)N[C@@H](C)CO[C@H]1CC[C@H](Oc2nc3ccc(OC4CC4)nc3n2C)CC1 [Example I-234] | 7.89 | –
18 | CC(=O)N[C@@H](C)CO[C@H]1CC[C@H](Oc2nc3cc(F)c(F)cc3n2C)CC1 [Example I-238] | 7.08 | –
19 | COC(=O)N[C@@H](CF)CO[C@H]1CC[C@H](Oc2nc3c(F)cc(OCC(F)F)c(F)c3n2C)CC1 [Example I-239] | 7.52 | –
20 | C[C@@H](CO[C@H]1CC[C@H](Oc2nc3c(F)cc(OCC(F)F)c(F)c3n2C)CC1)NS(N)(=O)=O [Example I-242] | 6.92 | < 4.00
21 | C[C@@H](CO[C@H]1CC[C@H](Oc2nc3c(F)cc(OC4CC4)cc3n2C)CC1)NC(N)=O [Example I-243] | 8.25 | –
22 | CC(=O)N[C@@H](C)CO[C@H]1CC[C@H](Oc2nc3c(F)cc(OCC(C)(C)C#N)c(F)c3n2C)CC1 [Example I-244] | 7.59 | –
23 | Cn1c(O[C@H]2CC[C@H](OC[C@H](CF)NC(=O)CO)CC2)nc2c(F)cc(OCC(F)F)c(F)c21 [Example I-245] | 7.28 | < 4.00
24 | CC(=O)N[C@@H](C)CO[C@H]1CC[C@H](Oc2nc3ccc(OC4CC4)c(F)c3n2C)CC1 [Example I-247] | 8.41 | –
25 | CC(=O)N[C@@H](C)CC[C@H]1OC[C@H](Oc2nc3c(F)cc(OC4CC4)cc3n2C)CO1 [Example I-249] | 8.18 | –
26 | CC(=O)N[C@@H](C)CO[C@H]1CC[C@@H](Cc2nc3c(F)cc(OCC(F)F)c(F)c3n2C)CC1 [Example I-251] | 7.00 | –

More lines, now with the values ahead:

Row | pIC50 (recombinant human ACC2) | pIC50 (recombinant human ACC1) | SMILES
27 | 6.14 | < 4.00 | CC(=O)N[C@@H](C)CO[C@H]1CC[C@H](Oc2nc3ncc(OC4CC4)cc3n2C)CC1 [Example I-199]
28 | 7.77 | – | CC(=O)N[C@@H](C)CO[C@H]1CC[C@H](Oc2nc3ccc(OC4(C)CC4)cc3n2C)CC1 [Example I-202]
29 | – | < 4.00 | C[C@@H](CO[C@H]1CC[C@H](Oc2nc3ncc(OC4CC4)cc3n2C)CC1)NC(N)=O [Example I-204]
30 | 8.34 | – | CC(=O)N[C@@H](CF)CO[C@H]1CC[C@H](Oc2nc3c(F)cc(OCC(F)F)c(Cl)c3n2C)CC1 [Example I-205]
31 | 7.92 | – | CC(=O)N[C@@H](CF)CO[C@H]1CC[C@H](Oc2nc3c(C#N)cc(OC4CC4)c(F)c3n2C)CC1 [Example I-206]
32 | 8.27 | – | CC(=O)N[C@@H](C)CO[C@H]1CC[C@H](Oc2nc3cc(F)c(OC4CC4)c(F)c3n2C)CC1 [Example I-207]
33 | 8.28 | – | CC(=O)N[C@@H](C)CO[C@H]1CC[C@H](Oc2nc3c(F)c(F)c(OCC(F)F)c(F)c3n2C)CC1 [Example I-209]
34 | 8.14 | – | CC(=O)N[C@@H](CF)CO[C@H]1CC[C@H](Oc2nc3cnc(OC4CC4)c(F)c3n2C)CC1 [Example I-210]
35 | 7.26 | – | CC(=O)N[C@@H](C)CO[C@H]1CC[C@H](Oc2nc3cc(F)c(OC4CC4)cc3n2C)CC1 [Example I-212]
36 | 8.05 | – | Cn1c(O[C@H]2CC[C@H](OC[C@H](CF)NC(N)=O)CC2)nc2c(F)cc(OC3CC3)cc21 [Example I-213]
37 | 7.92 | – | CC(=O)N[C@@H](C)C(F)(F)C[C@H]1CC[C@H](Oc2nc3c(F)cc(OCC(F)F)c(F)c3n2C)CO1 [Example I-214]
38 | 7.24 | – | CC(=O)N[C@@H](C)CO[C@H]1CC[C@H](Oc2nc3c(F)cc(OC4CC5(COC5)C4)c(F)c3n2C)CC1 [Example I-216]
39 | 6.92 | – | C[C@@H](CO[C@H]1CC[C@H](Oc2nc3cc(F)c(OC4CC4)cc3n2C)CC1)NC(N)=O [Example I-218]
40 | 7.92 | – | CC(=O)N[C@@H](C)CO[C@H]1CC[C@H](Oc2nc3c(F)cc(OC4COC4)c(Cl)c3n2C)CC1 [Example I-219]
41 | 6.74 | – | CC(=O)N[C@H](C)C(F)(F)C[C@H]1CC[C@H](Oc2nc3c(F)cc(OCC(F)F)c(F)c3n2C)CO1 [Example I-220]
42 | 7.06 | – | CC(=O)N[C@@H](C)CO[C@H]1CC[C@H](Oc2nc3c(F)cc(O[C@H]4C[C@H](O)C4)c(F)c3n2C)CC1 [Example I-223]
43 | 6.82 | – | CC(=O)N[C@@H](C)CO[C@H]1CC[C@H](Oc2nc3cnc(OC4CC4)cc3n2C)CC1 [Example I-224]
44 | 7.48 | – | CC(=O)N[C@@H](C)CO[C@H]1CC[C@H](Oc2nc3c(C#N)cc(OC4CC4)cc3n2C)CC1 [Example I-225]
45 | 8.21 | – | CC(=O)N[C@@H](C)CO[C@H]1CC[C@H](Oc2nc3c(C#N)cc(OC4CCC4)c(F)c3n2C)CC1 [Example I-226]
46 | 7.36 | – | Cn1c(O[C@H]2CC[C@H](OC[C@H](CF)NC(=O)CC#N)CC2)nc2c(F)cc(OCC(F)F)c(F)c21 [Example I-227]
47 | 8.00 | – | CC(=O)N[C@@H](C)CO[C@H]1CC[C@H](Oc2nc3c(F)cc(OC(F)F)c(F)c3n2C)CC1 [Example I-231]
48 | 7.51 | < 4.00 | Cn1c(O[C@H]2CC[C@H](OC[C@H](CF)NC(=O)C3CC3)CC2)nc2c(F)cc(OCC(F)F)c(F)c21 [Example I-233]
49 | 7.37 | – | C[C@@H](CO[C@H]1CC[C@H](Oc2nc3c(F)c(F)c(F)c(F)c3n2C)CC1)NC(N)=O [Example I-235]
50 | 7.92 | – | C[C@@H](CO[C@H]1CC[C@H](Oc2nc3cnc(OC4CC4)c(F)c3n2C)CC1)NC(N)=O [Example I-237]
51 | 7.36 | – | C[C@@H](CO[C@H]1CC[C@H](Oc2nc3ccc(OC4CC4)nc3n2C)CC1)NC(N)=O [Example I-240]
52 | 8.02 | – | C[C@@H](CO[C@H]1CC[C@H](Oc2nc3cc(F)c(OC4CC4)c(F)c3n2C)CC1)NC(N)=O [Example I-241]
53 | 7.11 | – | CC(=O)N[C@@H](C)CO[C@H]1CC[C@H](Oc2nc3c(F)cc(O[C@H]4C[C@@H](O)C4)c(F)c3n2C)CC1 [Example I-246]
54 | 7.68 | – | CC(=O)N[C@@H](C)/C=C(\F)[C@@H]1CC[C@@H](Oc2nc3c(F)cc(OCC(F)F)c(F)c3n2C)CO1 [Example I-250]
55 | – | < 4.00 | CC(=O)N[C@@H](C)CO[C@H]1CC[C@H](Cc2nc3c(F)cc(OCC(F)F)c(F)c3n2C)CC1 [Example I-252]
